Source: patent US8962596B2 (Array BioPharma Inc., priority 2010, dated 2015)

Key:
Type in all cases: biochemical
JAK1 = biological target: T1, JAK1 (Homo sapiens, UniProt P23458); assay: JAK1 Inhibition Assay (Omnia kinase fluorescence peptide substrate assay); details: averaged IC50 ranges; assay of Example B; 40 μM (Km app) or 1 mM ATP, 15 nM JAK1
T1 construct: purchased Invitrogen Corporation, Carlsbad, Calif; PV4775
Source text: (§1) The assays described in Examples A, B, C and D for the determination of Tyk2, JAK1, JAK2 and JAK3 kinase activity, respectively, utilized the Omnia® Kinase fluorescence peptide substrate-based technology (Invitrogen). The specific components of the assay mixture are described in Examples A, B, C and D. In these assays, Mg^2+ is chelated upon phosphorylation of the Omnia peptide by the kinase to form a bridge between the chelation-enhanced fluorophore Sox and the phosphate, resulting in an increase in fluorescence emission at 485 nm when excited at […]. The reactions were therefore read at excitation 360 nm and emission was measured at 485 nm every 50 seconds for 45 minutes using a PerkinElmer EnVision Multilabel Plate Reader.
(§2) The final buffer conditions for Tyk2, JAK1, JAK2, and JAK3 assays were as follows: 25 mM HEPES, pH 7.4, 10 mM MgCl2, 0.01% Triton X-100 and 1 mM DTT.
(§3) Compounds were prepared at 50× the final concentration in DMSO by conducting 3-fold serial dilutions from a 500-μM intermediate dilution to give a 10-point dosing curve having a high dose of 10 μM. Two-μL aliquots of these were transferred to a fresh plate for a ten-fold intermediate dilution with assay buffer. Five-μL aliquots of the diluted compounds were then transferred to 20-μL of assay mixtures described in Examples A, B, C and D for a final concentration of DMSO of 2%. A standard or reference compound was typically included on each assay plate to validate that plate. For each plate, percent of control (POC) values were calculated for each well according to the following equation:
(§4) where Xmax=Average Uninhibited Controls • Xmin=Average Background IC50's were estimated from the POC's using a standard 4-parameter logistic model:
(§5) where • A=Minimum Y (Bottom Asymptote) • B=Maximum Y (Top Asymptote) • C=EC50 • D=Slope Factor • X=Compound Concentration (nM) • Y=POC
(§6) The IC50 is defined as the concentration of inhibitor at which the POC equals 50 for the fitted curve.
Compounds of Formula I were screened for their ability to inhibit JAK1 using the general enzyme inhibition assay method, in which the assay mixture contained 40 μM (Km app) or 1 mM ATP, 8 μM Omnia® Y12 peptide (Catalog #IVGN KPZ3121C; Invitrogen Corporation, Carlsbad, Calif.) and 15 nM JAK1 in a total volume of 20 μL. JAK1 was purchased from Invitrogen Corporation, Carlsbad, Calif. (catalog #IVGN PV4775).

JAK2 = biological target: T2, JAK2 (Homo sapiens, UniProt O60674); assay: JAK2 Inhibition Assay (Omnia kinase fluorescence peptide substrate assay); details: averaged IC50 ranges; assay of Example C; 25 μM (Km app) or 1 mM ATP, 5 nM JAK2
T2 construct: purchased Invitrogen Corporation, Carlsbad, Calif; PV4288
T2 sequence (O60674 whole entry): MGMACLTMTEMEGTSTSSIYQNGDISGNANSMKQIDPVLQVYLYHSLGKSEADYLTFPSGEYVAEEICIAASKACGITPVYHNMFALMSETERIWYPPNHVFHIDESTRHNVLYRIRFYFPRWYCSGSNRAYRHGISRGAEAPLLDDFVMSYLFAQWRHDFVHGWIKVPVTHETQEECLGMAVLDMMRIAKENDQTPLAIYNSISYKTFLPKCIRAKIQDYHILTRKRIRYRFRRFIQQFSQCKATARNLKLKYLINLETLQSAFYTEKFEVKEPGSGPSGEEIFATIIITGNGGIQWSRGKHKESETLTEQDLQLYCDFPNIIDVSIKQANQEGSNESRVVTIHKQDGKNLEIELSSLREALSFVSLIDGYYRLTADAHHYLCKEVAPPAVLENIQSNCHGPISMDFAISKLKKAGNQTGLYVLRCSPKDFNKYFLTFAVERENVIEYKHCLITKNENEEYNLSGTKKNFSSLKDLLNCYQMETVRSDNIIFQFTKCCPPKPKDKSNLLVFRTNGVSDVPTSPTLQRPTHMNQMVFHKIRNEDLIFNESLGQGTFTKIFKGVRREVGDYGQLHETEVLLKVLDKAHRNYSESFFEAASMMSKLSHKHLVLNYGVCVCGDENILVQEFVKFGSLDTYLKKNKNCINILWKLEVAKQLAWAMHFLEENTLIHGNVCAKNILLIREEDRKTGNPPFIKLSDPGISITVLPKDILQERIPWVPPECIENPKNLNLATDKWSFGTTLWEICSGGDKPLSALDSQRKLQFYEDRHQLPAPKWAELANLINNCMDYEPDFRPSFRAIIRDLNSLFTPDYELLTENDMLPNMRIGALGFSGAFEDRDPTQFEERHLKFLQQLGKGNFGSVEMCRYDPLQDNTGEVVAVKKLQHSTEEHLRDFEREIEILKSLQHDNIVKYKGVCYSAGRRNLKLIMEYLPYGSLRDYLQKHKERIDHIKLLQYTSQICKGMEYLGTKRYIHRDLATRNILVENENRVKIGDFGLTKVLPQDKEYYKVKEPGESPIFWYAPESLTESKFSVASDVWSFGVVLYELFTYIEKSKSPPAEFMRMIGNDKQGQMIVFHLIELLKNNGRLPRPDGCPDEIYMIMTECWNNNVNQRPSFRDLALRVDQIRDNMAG
Source text: as §1, §2, §3, §4, §5, §6
(§7) Compounds of Formula I were screened for their ability to inhibit JAK2 using the general enzyme inhibition assay method, in which the assay mixture contained 25 μM (Km app) or 1 mM ATP, 10 μM Omnia® Y7 peptide (Catalog #IVGN KNZ3071C, Invitrogen Corporation, Carlsbad, Calif.) and 5 nM JAK2 in a total volume of 20 μL. JAK2 was purchased from Invitrogen Corporation, Carlsbad, Calif. (catalog #IVGN PV4288).

Human Tyk2 kinase domain = biological target: T3, Human Tyk2 kinase domain (Homo sapiens, UniProt P29597); assay: Tyk2 Inhibition Assay (Omnia kinase fluorescence peptide substrate assay); details: averaged IC50 ranges; assay of Example A; 10 μM (Km app) or 1 mM ATP, 2 nM Tyk2
T3 construct: comprising amino acids 886 to 1187 with 10 additional histidine residues; 10xHis (histidine tag) (C, cleaved yes); made in house
T3 sequence (P29597 886-1187): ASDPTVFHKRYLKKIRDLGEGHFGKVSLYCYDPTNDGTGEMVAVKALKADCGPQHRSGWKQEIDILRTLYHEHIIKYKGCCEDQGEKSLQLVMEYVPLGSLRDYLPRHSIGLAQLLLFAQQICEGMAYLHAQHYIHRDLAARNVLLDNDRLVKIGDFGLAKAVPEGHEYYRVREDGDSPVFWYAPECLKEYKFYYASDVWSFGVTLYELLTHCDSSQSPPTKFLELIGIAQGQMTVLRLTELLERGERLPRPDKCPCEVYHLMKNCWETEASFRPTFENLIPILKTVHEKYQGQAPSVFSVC
Source text: as §1, §2, §3, §4, §5, §6
Compounds of Formula I were screened for their ability to inhibit Tyk2 using the general enzyme inhibition assay method, in which the assay mixture contained 10 μM (Km app) or 1 mM ATP, 8 μM Omnia® Y12 peptide (Catalog #IVGN KPZ3121C; Invitrogen Corporation, Carlsbad, Calif.) and 2 nM Tyk2 in a total volume of 20 μL. Human Tyk2 kinase domain, comprising amino acids 886 to 1187 with 10 additional histidine residues (histidine tag) on the carboxy terminus, was expressed and purified from bacculovirus in-house at Array BioPharma Inc. (Boulder, Colo.). The histidine tag was cleaved after purification using standard conditions.

JAK3 = biological target: T4, JAK3 (Homo sapiens, UniProt P52333); assay: JAK3 Inhibition Assay (Omnia kinase fluorescence peptide substrate assay); details: averaged IC50 ranges; assay of Example D; 10 μM (Km app) or 1 mM ATP, 2.5 nM JAK3
T4 construct: purchased Invitrogen Corporation, Carlsbad, Calif; PV4080
T4 sequence (P52333 1-1124): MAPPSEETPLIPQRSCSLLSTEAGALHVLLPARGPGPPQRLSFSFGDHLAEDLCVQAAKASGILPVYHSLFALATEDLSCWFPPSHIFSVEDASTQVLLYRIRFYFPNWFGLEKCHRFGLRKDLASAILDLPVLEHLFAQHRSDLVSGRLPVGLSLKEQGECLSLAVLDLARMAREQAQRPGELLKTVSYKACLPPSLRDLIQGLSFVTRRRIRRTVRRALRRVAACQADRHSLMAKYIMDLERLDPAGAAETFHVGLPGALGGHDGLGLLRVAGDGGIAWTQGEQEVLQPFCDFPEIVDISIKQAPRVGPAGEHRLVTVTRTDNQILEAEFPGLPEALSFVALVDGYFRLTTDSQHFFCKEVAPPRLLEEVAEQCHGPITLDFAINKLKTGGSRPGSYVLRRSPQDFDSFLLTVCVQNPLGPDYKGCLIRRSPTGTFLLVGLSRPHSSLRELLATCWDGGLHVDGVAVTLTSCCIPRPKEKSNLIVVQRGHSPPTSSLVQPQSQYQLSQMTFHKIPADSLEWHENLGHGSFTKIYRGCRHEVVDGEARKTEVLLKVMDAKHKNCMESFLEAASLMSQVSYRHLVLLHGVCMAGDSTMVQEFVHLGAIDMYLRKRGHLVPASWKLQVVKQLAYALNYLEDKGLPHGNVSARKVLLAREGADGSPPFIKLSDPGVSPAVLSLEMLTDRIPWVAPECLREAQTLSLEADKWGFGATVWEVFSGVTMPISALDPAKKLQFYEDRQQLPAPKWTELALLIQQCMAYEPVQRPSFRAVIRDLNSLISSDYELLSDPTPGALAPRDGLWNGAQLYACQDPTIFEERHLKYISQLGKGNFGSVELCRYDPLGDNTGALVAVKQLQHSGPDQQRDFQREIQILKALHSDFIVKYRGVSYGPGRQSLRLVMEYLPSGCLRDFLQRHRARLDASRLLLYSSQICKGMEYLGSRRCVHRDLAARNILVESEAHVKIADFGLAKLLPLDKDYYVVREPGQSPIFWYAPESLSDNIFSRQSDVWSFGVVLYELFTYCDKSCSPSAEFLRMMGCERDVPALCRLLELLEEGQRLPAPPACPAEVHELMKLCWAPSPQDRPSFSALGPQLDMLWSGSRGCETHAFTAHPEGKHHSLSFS
Source text: as §1, §2, §3, §4, §5, §6
as §7, with “JAK3” for “JAK2”, “10” for “25”, “2.5” for “5”, “PV4080).” for “PV4288).”

T1 sequence (P23458 whole entry): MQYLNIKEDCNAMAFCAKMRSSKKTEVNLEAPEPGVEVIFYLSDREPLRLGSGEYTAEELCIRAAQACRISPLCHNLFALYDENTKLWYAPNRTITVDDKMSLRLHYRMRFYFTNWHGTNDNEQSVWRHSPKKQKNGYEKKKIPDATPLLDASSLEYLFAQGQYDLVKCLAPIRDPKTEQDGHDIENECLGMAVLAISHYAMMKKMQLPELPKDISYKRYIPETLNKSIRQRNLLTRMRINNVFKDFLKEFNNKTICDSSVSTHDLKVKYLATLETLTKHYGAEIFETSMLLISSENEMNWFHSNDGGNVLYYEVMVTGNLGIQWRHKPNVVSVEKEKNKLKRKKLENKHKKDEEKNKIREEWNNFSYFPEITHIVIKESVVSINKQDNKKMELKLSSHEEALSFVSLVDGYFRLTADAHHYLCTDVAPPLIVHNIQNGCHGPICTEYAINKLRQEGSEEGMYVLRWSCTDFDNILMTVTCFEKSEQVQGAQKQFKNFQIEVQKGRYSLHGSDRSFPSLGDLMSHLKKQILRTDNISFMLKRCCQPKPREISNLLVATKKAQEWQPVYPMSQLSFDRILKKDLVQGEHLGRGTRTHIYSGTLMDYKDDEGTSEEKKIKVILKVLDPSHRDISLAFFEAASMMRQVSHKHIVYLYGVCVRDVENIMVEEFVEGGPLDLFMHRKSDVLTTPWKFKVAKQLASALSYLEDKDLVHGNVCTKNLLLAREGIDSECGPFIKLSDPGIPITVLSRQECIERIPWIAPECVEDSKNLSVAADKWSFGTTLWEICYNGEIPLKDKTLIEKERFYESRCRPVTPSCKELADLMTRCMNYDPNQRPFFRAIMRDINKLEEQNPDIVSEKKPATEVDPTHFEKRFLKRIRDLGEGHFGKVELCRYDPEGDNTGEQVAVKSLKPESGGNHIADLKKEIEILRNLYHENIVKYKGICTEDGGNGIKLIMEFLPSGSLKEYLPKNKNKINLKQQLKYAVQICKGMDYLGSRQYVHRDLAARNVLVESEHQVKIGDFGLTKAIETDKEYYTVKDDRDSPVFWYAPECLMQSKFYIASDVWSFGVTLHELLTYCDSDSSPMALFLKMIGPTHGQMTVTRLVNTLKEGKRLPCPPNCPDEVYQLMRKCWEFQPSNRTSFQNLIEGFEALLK

Row | SMILES | IC50 (JAK1) | IC50 (JAK2) | IC50 (Human Tyk2 kinase domain) | IC50 (JAK3)
1 | COc1ncc(-c2cc3nccn3c(-c3cnn(C4(CC#N)CN(S(=O)(=O)C5CC5)C4)c3)n2)cn1 [Example 141, 2-(1-(cyclopropylsulfonyl)-3-(4-(7-(2-methoxypyrimidin-5-yl)imidazo[1,2-c]pyrimidin-5-yl)-1H-pyrazol-1-yl)azetidin-3-yl)acetonitrile] | > 1000 nM | 100 to 1000 nM | 10 to 100 nM | > 1000 nM
2 | N#CCC(C1CCCC1)n1cc(-c2nc(-c3ccc(N4CCOCC4)cc3)cc3nccn23)cn1 (single isomer, unassigned) [Example 114, 3-cyclopentyl-3-(4-(7-(4-morpholinophenyl)imidazo[1,2-c]pyrimidin-5-yl)-1H-pyrazol-1-yl)propanenitrile] | 100 to 1000 nM | 10 to 100 nM | < 10 nM | 100 to 1000 nM
3 | Cn1cc(-c2cc3nccn3c(-c3cnn(C(CC#N)c4cccc(Cl)c4)c3)n2)cn1 (centres unmarked) [Example 13, 3-(3-chlorophenyl)-3-(4-(7-(1-methyl-1H-pyrazol-4-yl)imidazo[1,2-c]pyrimidin-5-yl)-1H-pyrazol-1-yl)propanenitrile] | 10 to 100 nM | < 10 nM | < 10 nM | 100 to 1000 nM
4 | Cn1cc(-c2cc3nccn3c(-c3cnn(C4(CC#N)CC5(CCCC5)C4)c3)n2)cn1 [Example 161, 2-(2-(4-(7-(1-methyl-1H-pyrazol-4-yl)imidazo[1,2-c]pyrimidin-5-yl)-1H-pyrazol-1-yl)spiro[3.4]octan-2-yl)acetonitrile] | 100 to 1000 nM | 10 to 100 nM | < 10 nM | > 1000 nM
5 | Cc1cn(-c2cc3nccn3c(-c3cnn(C(CC#N)C4CC4)c3)n2)cn1 (centres unmarked) [Example 46, 3-Cyclopropyl-3-(4-(7-(4-methyl-1H-imidazol-1-yl)imidazo[1,2-c]pyrimidin-5-yl)-1H-pyrazol-1-yl)propanenitrile] | > 1000 nM | 100 to 1000 nM | 10 to 100 nM | > 1000 nM
6 | Cn1cc(-c2cc3nccn3c(-c3cnn(C4(CC#N)CC5(COC5)C4)c3)n2)cn1 [Example 148, 2-(6-(4-(7-(1-methyl-1H-pyrazol-4-yl)imidazo[1,2-c]pyrimidin-5-yl)-1H-pyrazol-1-yl)-2-oxaspiro[3.3]heptan-6-yl)acetonitrile] | 100 to 1000 nM | 10 to 100 nM | < 10 nM | > 1000 nM
7 | Cn1ccc(-c2cc3nccn3c(-c3ccn(C4(CC#N)CN(CC(F)(F)F)C4)n3)n2)cc1=O [Example 144, 2-(3-(3-(7-(1-methyl-2-oxo-1,2-dihydropyridin-4-yl)imidazo[1,2-c]pyrimidin-5-yl)-1H-pyrazol-1-yl)-1-(2,2,2-trifluoroethyl)azetidin-3-yl)acetonitrile] | > 1000 nM | 100 to 1000 nM | 10 to 100 nM | > 1000 nM

Now from value to molecule:

Row | IC50 (JAK1) | IC50 (JAK2) | IC50 (Human Tyk2 kinase domain) | IC50 (JAK3) | SMILES
8 | > 1000 nM | 100 to 1000 nM | 10 to 100 nM | > 1000 nM | Cn1cc(-c2cc3nccn3c(-c3cnn(C4(CC#N)CN(CC5CCC5)C4)c3)n2)cn1 [Example 87, 2-(1-(cyclobutylmethyl)-3-(4-(7-(1-methyl-1H-pyrazol-4-yl)imidazo[1,2-c]pyrimidin-5-yl)-1H-pyrazol-1-yl)azetidin-3-yl)acetonitrile]
9 | 10 to 100 nM | 10 to 100 nM | < 10 nM | 100 to 1000 nM | Cn1cc(-c2cc3nccn3c(-c3cnn(C4(CC#N)CCN(S(=O)(=O)C(F)(F)F)C4)c3)n2)cn1 (centres unmarked) [Example 133, 2-(3-(4-(7-(1-methyl-1H-pyrazol-4-yl)imidazo[1,2-c]pyrimidin-5-yl)-1H-pyrazol-1-yl)-1-(trifluoromethylsulfonyl)pyrrolidin-3-yl)acetonitrile]
10 | 10 to 100 nM | 10 to 100 nM | < 10 nM | 100 to 1000 nM | CN1CCC(c2ccc(-c3cc4nccn4c(-c4cnn(C(CC#N)C5CCCC5)c4)n3)cc2)CC1 (single isomer, unassigned) [Example 112, 3-cyclopentyl-3-(4-(7-(4-(1-methylpiperidin-4-yl)phenyl)imidazo[1,2-c]pyrimidin-5-yl)-1H-pyrazol-1-yl)propanenitrile]
11 | 100 to 1000 nM | 10 to 100 nM | < 10 nM | > 1000 nM | CCS(=O)(=O)N1CC(CC#N)(n2cc(-c3nc(-c4cnn(C)c4)cc4nccn34)cn2)C1 [Example 97, 2-(1-(ethylsulfonyl)-3-(4-(7-(1-methyl-1H-pyrazol-4-yl)imidazo[1,2-c]pyrimidin-5-yl)-1H-pyrazol-1-yl)azetidin-3-yl)acetonitrile]
